According to patent US9738634B2, “Heterocyclic amide compound and herbicide” (SYNGENTA PARTICIPATIONS AG, priority 2013, dated 2017):

How the values were obtained:
Assay type in all cases: in vivo
[1] = tested on: barnyard grass; experiment: Test Example 1: weedkilling efficacy, preemergent weed treatment in the submerged state; A: barnyard grass; details: treatment dosage 252 g/ha
Procedure, shortened: (§1)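 Alluvial soil in Wagner pots flooded to 4 cm; barnyard grass, bulrush and oval-leafed pondweed seeds sown, then 2.5-leaf rice seedlings transplanted. Same day, emulsified compound diluted in water to set g/ha dosages and applied to water surface; greenhouse 25–30 °C, effect scored by criteria after 3 weeks.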

[2] = tested on: bulrush; experiment: Test Example 1: weedkilling efficacy, preemergent weed treatment in the submerged state; B: bulrush; details: treatment dosage 252 g/ha
Procedure, shortened: as §1

[3] = tested on: oval-leafed pondweed; experiment: Test Example 1: weedkilling efficacy, preemergent weed treatment in the submerged state; C: oval-leafed pondweed; details: treatment dosage 252 g/ha
Procedure, shortened: as §1

[4] = tested on: transplanted rice; experiment: Test Example 1: preemergent weed treatment in the submerged state, effect on crop; a: transplanted rice; details: treatment dosage 252 g/ha
Procedure, shortened: as §1

[5] = tested on: barnyard grass; experiment: Test Example 2: weedkilling efficacy, growth period weed treatment in the submerged state; A: barnyard grass; details: treatment dosage 252 g/ha
Procedure, shortened: (§2)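 First, alluvial soil in pots is flooded to 4 cm and mixed seed is sown. Next, plants grow in a greenhouse at 25 to 30° C until the 1-2 leaf stage. Then diluted emulsion is applied onto the water surface at the given g/ha rate, and injury is assessed after 3 weeks.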

[6] = tested on: bulrush; experiment: Test Example 2: weedkilling efficacy, growth period weed treatment in the submerged state; B: bulrush; details: treatment dosage 252 g/ha
Procedure, shortened: as §2

[7] = tested on: oval-leafed pondweed; experiment: Test Example 2: weedkilling efficacy, growth period weed treatment in the submerged state; C: oval-leafed pondweed; details: treatment dosage 252 g/ha
Procedure, shortened: as §2

[8] = tested on: crabgrass; experiment: Test Example 3: weedkilling efficacy through soil treatment; D: crabgrass; details: treatment dosage 315 g/ha
Procedure, shortened: (§3)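 Crop and weed responses were judged three weeks after a uniform surface spray of the water-diluted emulsion at the given g/ha rate. Seeds sat beneath about 1.5 cm of sterilized diluvial soil, and boxes stood in a greenhouse at 25 to 30° C.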

[9] = tested on: green foxtail; experiment: Test Example 3: weedkilling efficacy through soil treatment; E: green foxtail; details: treatment dosage 315 g/ha
Procedure, shortened: as §3

[10] = tested on: wild oat; experiment: Test Example 3: weedkilling efficacy through soil treatment; G: wild oat; details: treatment dosage 315 g/ha
Procedure, shortened: as §3

[11] = tested on: black-grass; experiment: Test Example 3: weedkilling efficacy through soil treatment; H: black-grass; details: treatment dosage 315 g/ha
Procedure, shortened: as §3

[12] = tested on: Italian ryegrass; experiment: Test Example 3: weedkilling efficacy through soil treatment; I: Italian ryegrass; details: treatment dosage 315 g/ha
Procedure, shortened: as §3

[13] = tested on: Indian mallow; experiment: Test Example 3: weedkilling efficacy through soil treatment; K: Indian mallow; details: treatment dosage 315 g/ha
Procedure, shortened: as §3

[14] = tested on: redroot pigweed; experiment: Test Example 3: weedkilling efficacy through soil treatment; L: redroot pigweed; details: treatment dosage 315 g/ha
Procedure, shortened: as §3

[15] = tested on: fig-leafed goosefoot; experiment: Test Example 3: weedkilling efficacy through soil treatment; M: fig-leafed goosefoot; details: treatment dosage 315 g/ha
Procedure, shortened: as §3

[16] = tested on: chickweed; experiment: Test Example 3: weedkilling efficacy through soil treatment; N: chickweed; details: treatment dosage 315 g/ha
Procedure, shortened: as §3

[17] = tested on: catchweed; experiment: Test Example 3: weedkilling efficacy through soil treatment; O: catchweed; details: treatment dosage 315 g/ha
Procedure, shortened: as §3

[18] = tested on: birds-eye speedwell; experiment: Test Example 3: weedkilling efficacy through soil treatment; p: birds-eye speedwell; details: treatment dosage 315 g/ha
Procedure, shortened: as §3

[19] = tested on: directly sown rice; experiment: Test Example 3: soil treatment, effect on crop; b: directly sown rice; details: treatment dosage 315 g/ha
Procedure, shortened: as §3

[20] = tested on: corn; experiment: Test Example 3: soil treatment, effect on crop; c: corn; details: treatment dosage 315 g/ha
Procedure, shortened: as §3

[21] = tested on: soybean; experiment: Test Example 3: soil treatment, effect on crop; d: soybean; details: treatment dosage 315 g/ha
Procedure, shortened: as §3

[22] = tested on: wheat; experiment: Test Example 3: soil treatment, effect on crop; e: wheat; details: treatment dosage 315 g/ha
Procedure, shortened: as §3

[23] = tested on: beet; experiment: Test Example 3: soil treatment, effect on crop; f: beet; details: treatment dosage 315 g/ha
Procedure, shortened: as §3

[24] = tested on: crabgrass; experiment: Test Example 4: weedkilling efficacy by foliar treatment; D: crabgrass; details: treatment dosage 315 g/ha
Procedure, shortened: (§4)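 Seeds are spot-sown into sterilized diluvial soil and covered with about 1.5 cm of soil. After 14 days' greenhouse growth at 25 to 30° C, plants are sprayed on stems and leaves with diluted emulsion at the stated g/ha rate, then scored at 3 weeks.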

[25] = tested on: green foxtail; experiment: Test Example 4: weedkilling efficacy by foliar treatment; E: green foxtail; details: treatment dosage 315 g/ha
Procedure, shortened: as §4

[26] = tested on: wild oat; experiment: Test Example 4: weedkilling efficacy by foliar treatment; G: wild oat; details: treatment dosage 315 g/ha
Method: Testing of Weedkilling Efficacy by Foliar Treatment
Sterilized diluvial soil was introduced into 21 cm long, 13 cm wide, 7 cm deep plastic boxes, and seeds of crabgrass, green foxtail, barnyard grass, wild oat, black-grass, Italian ryegrass, common wind-grass, Indian mallow, redroot pigweed, fig-leafed goosefoot, chickweed, catchweed, birds-eye speedwell, corn, soybean, rice, wheat, beet and rapeseed were each spot-sown, and covered with about 1.5 cm of soil, then the plants were grown in a greenhouse at 25 to 30° C.
After they had grown for 14 days, emulsions of compounds of the present invention prepared according to compounding example 2 were diluted with water to give the specified dosages, and applied uniformly onto the stem and leaf parts with a small sprayer. 3 weeks after the pesticide treatment the effect on each type of plant was investigated on the basis of the assessment criteria of test example 1.
A: barnyard grass, B: bulrush, C: oval-leafed pondweed, D: crabgrass, E: green foxtail, F: barnyard grass, G: wild oat, H: black-grass, I: Italian ryegrass, J: common wind-grass, K: Indian mallow, L: redroot pigweed, M: fig-leafed goosefoot, N: chickweed, O: catchweed, p: birds-eye speedwell, a: transplanted rice, b: directly sown rice, c: corn, d: soybean, e: wheat, f: beet, g: rapeseed
Further, pesticide dosage (g/ha) indicates the concentration regulated such that treatment was with only the stated number of grams (g), when calculated per hectare (ha).

[27] = tested on: black-grass; experiment: Test Example 4: weedkilling efficacy by foliar treatment; H: black-grass; details: treatment dosage 315 g/ha
Procedure, shortened: as §4

[28] = tested on: Italian ryegrass; experiment: Test Example 4: weedkilling efficacy by foliar treatment; I: Italian ryegrass; details: treatment dosage 315 g/ha
Procedure, shortened: as §4

[29] = tested on: Indian mallow; experiment: Test Example 4: weedkilling efficacy by foliar treatment; K: Indian mallow; details: treatment dosage 315 g/ha
Procedure, shortened: as §4

[30] = tested on: redroot pigweed; experiment: Test Example 4: weedkilling efficacy by foliar treatment; L: redroot pigweed; details: treatment dosage 315 g/ha
Procedure, shortened: as §4

[31] = tested on: fig-leafed goosefoot; experiment: Test Example 4: weedkilling efficacy by foliar treatment; M: fig-leafed goosefoot; details: treatment dosage 315 g/ha
Procedure, shortened: as §4

[32] = tested on: chickweed; experiment: Test Example 4: weedkilling efficacy by foliar treatment; N: chickweed; details: treatment dosage 315 g/ha
Procedure, shortened: as §4

[33] = tested on: catchweed; experiment: Test Example 4: weedkilling efficacy by foliar treatment; O: catchweed; details: treatment dosage 315 g/ha
Procedure, shortened: as §4

[34] = tested on: directly sown rice; experiment: Test Example 4: foliar treatment, effect on crop; b: directly sown rice; details: treatment dosage 315 g/ha
Procedure, shortened: as §4

[35] = tested on: corn; experiment: Test Example 4: foliar treatment, effect on crop; c: corn; details: treatment dosage 315 g/ha
Procedure, shortened: as §4

[36] = tested on: soybean; experiment: Test Example 4: foliar treatment, effect on crop; d: soybean; details: treatment dosage 315 g/ha
Procedure, shortened: as §4

[37] = tested on: wheat; experiment: Test Example 4: foliar treatment, effect on crop; e: wheat; details: treatment dosage 315 g/ha
Procedure, shortened: as §4

[38] = tested on: beet; experiment: Test Example 4: foliar treatment, effect on crop; f: beet; details: treatment dosage 315 g/ha
Procedure, shortened: as §4

CC1=C(c2ccccc2)C(=O)N(C(C)(C)C(=O)Nc2cc(Cl)cc(Br)n2)CO1 [B-2-36]
A (barnyard grass) weedkilling efficacy grade [1]: 5 (weed kill ratio 90% or more, (practically complete withering))
B (bulrush) weedkilling efficacy grade [2]: 5 (weed kill ratio 90% or more, (practically complete withering))
C (oval-leafed pondweed) weedkilling efficacy grade [3]: 5 (weed kill ratio 90% or more, (practically complete withering))
a (transplanted rice) effect on crop grade [4]: 0 (weed kill ratio 5% or less (practically no effect))
A (barnyard grass) weedkilling efficacy grade [5]: 5 (weed kill ratio 90% or more, (practically complete withering))
B (bulrush) weedkilling efficacy grade [6]: 5 (weed kill ratio 90% or more, (practically complete withering))
C (oval-leafed pondweed) weedkilling efficacy grade [7]: 5 (weed kill ratio 90% or more, (practically complete withering))
D (crabgrass) weedkilling efficacy grade [8]: 5 (weed kill ratio 90% or more, (practically complete withering))
E (green foxtail) weedkilling efficacy grade [9]: 5 (weed kill ratio 90% or more, (practically complete withering))
G (wild oat) weedkilling efficacy grade [10]: 1 (weed kill ratio 5% or more, less than 20%)
H (black-grass) weedkilling efficacy grade [11]: 5 (weed kill ratio 90% or more, (practically complete withering))
I (Italian ryegrass) weedkilling efficacy grade [12]: 4 (weed kill ratio 70% or more, less than 90%)
K (Indian mallow) weedkilling efficacy grade [13]: 4 (weed kill ratio 70% or more, less than 90%)
L (redroot pigweed) weedkilling efficacy grade [14]: 4 (weed kill ratio 70% or more, less than 90%)
M (fig-leafed goosefoot) weedkilling efficacy grade [15]: 3 (weed kill ratio 40% or more, less than 70%)
N (chickweed) weedkilling efficacy grade [16]: 4 (weed kill ratio 70% or more, less than 90%)
O (catchweed) weedkilling efficacy grade [17]: 5 (weed kill ratio 90% or more, (practically complete withering))
P (birds-eye speedwell) weedkilling efficacy grade [18]: 4 (weed kill ratio 70% or more, less than 90%)
b (directly sown rice) effect on crop grade [19]: 4 (weed kill ratio 70% or more, less than 90%)
c (corn) effect on crop grade [20]: 1 (weed kill ratio 5% or more, less than 20%)
d (soybean) effect on crop grade [21]: 1 (weed kill ratio 5% or more, less than 20%)
e (wheat) effect on crop grade [22]: 0 (weed kill ratio 5% or less (practically no effect))
f (beet) effect on crop grade [23]: 3 (weed kill ratio 40% or more, less than 70%)
D (crabgrass) weedkilling efficacy grade [24]: 5 (weed kill ratio 90% or more, (practically complete withering))
E (green foxtail) weedkilling efficacy grade [25]: 5 (weed kill ratio 90% or more, (practically complete withering))
G (wild oat) weedkilling efficacy grade [26]: 1 (weed kill ratio 5% or more, less than 20%)
H (black-grass) weedkilling efficacy grade [27]: 3 (weed kill ratio 40% or more, less than 70%)
I (Italian ryegrass) weedkilling efficacy grade [28]: 0 (weed kill ratio 5% or less (practically no effect))
K (Indian mallow) weedkilling efficacy grade [29]: 4 (weed kill ratio 70% or more, less than 90%)
L (redroot pigweed) weedkilling efficacy grade [30]: 3 (weed kill ratio 40% or more, less than 70%)
M (fig-leafed goosefoot) weedkilling efficacy grade [31]: 4 (weed kill ratio 70% or more, less than 90%)
N (chickweed) weedkilling efficacy grade [32]: 4 (weed kill ratio 70% or more, less than 90%)
O (catchweed) weedkilling efficacy grade [33]: 4 (weed kill ratio 70% or more, less than 90%)
b (directly sown rice) effect on crop grade [34]: 4 (weed kill ratio 70% or more, less than 90%)
c (corn) effect on crop grade [35]: 3 (weed kill ratio 40% or more, less than 70%)
d (soybean) effect on crop grade [36]: 3 (weed kill ratio 40% or more, less than 70%)
e (wheat) effect on crop grade [37]: 0 (weed kill ratio 5% or less (practically no effect))
f (beet) effect on crop grade [38]: 3 (weed kill ratio 40% or more, less than 70%)
